How the values were obtained:
ALK5 (aa162-503) = ALK5 (aa162-503) (Homo sapiens (Human), UniProt P36897); experiment: Caliper biochemical peptide phosphorylation assay, ALK5; conditions: 15 μm ATP, 60 min at 30° C.; read-out: ALK5 EPK (IC50)
ALK3 (aa198-525) = ALK3 (aa198-525) (Homo sapiens (Human), UniProt P36894); experiment: ADPGlo biochemical autophosphorylation assay, ALK3; conditions: 15 μm ATP, 60 min at 32° C.
[1] = tested on: BMP response element (BRE) luciferase reporter in HuH7 cells, BMP6 stimulated; experiment: BMP signaling reporter gene assay; type: cell-based; conditions: Homo sapiens, Huh-7; HuH7 BRE-luciferase, BMP6 100 ng/ml, 5 hours; read-out: MSD BMP RGA IC50
ALK1 (aa166-493) = ALK1 (aa166-493) (Homo sapiens (Human), UniProt P37023); experiment: Caliper biochemical peptide phosphorylation assay, ALK1; conditions: 15 μm ATP, 60 min at 30° C.; read-out: ALK1 EPK (IC50)
Sequence of ALK1 (aa166-493) (P37023 166-493): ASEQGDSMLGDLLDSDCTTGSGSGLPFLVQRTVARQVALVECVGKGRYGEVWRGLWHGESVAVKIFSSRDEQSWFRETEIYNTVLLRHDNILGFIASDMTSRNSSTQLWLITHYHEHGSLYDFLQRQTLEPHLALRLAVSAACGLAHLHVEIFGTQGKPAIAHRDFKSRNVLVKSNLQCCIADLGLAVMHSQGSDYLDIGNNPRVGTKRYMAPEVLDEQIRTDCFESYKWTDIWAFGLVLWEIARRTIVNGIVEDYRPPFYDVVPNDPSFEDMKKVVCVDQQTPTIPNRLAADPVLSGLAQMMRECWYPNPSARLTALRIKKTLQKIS

[2] = target: T1, wild-type ALK2 (aa172-499) (Homo sapiens (Human), UniProt Q04771); experiment: ADPGlo biochemical autophosphorylation assay, ALK2; conditions: 15 μm ATP, 60 min at 32° C.
T1 sequence (Q04771 172-499): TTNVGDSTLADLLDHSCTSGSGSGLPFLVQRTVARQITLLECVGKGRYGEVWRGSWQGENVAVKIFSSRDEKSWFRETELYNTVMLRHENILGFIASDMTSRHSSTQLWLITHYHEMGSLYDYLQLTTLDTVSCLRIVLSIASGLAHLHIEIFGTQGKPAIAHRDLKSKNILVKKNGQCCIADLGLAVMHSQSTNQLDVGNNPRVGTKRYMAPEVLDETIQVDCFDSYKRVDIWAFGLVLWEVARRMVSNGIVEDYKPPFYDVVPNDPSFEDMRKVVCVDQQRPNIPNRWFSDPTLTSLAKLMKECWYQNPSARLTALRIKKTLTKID

[3] = target: T1, wild-type ALK2 (aa172-499); experiment: Caliper biochemical peptide phosphorylation assay, ALK2; conditions: 15 μm ATP, 60 min at 30° C.; read-out: ALK2 EPK (IC50)
ALK6 (aa168-495) = ALK6 (aa168-495) (Homo sapiens (Human), UniProt O00238); experiment: Caliper biochemical peptide phosphorylation assay, ALK6; conditions: 15 μm ATP, 60 min at 30° C.; read-out: ALK6 EPK (IC50)
Sequence of ALK6 (aa168-495) (O00238 168-495): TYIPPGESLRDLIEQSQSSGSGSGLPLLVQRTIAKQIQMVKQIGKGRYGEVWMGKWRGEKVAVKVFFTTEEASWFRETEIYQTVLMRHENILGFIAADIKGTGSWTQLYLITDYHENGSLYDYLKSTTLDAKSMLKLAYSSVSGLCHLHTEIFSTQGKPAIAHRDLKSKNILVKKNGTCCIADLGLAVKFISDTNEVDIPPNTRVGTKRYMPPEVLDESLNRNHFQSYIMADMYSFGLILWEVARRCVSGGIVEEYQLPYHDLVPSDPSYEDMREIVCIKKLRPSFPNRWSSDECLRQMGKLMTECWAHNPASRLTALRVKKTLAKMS

Sequence of ALK5 (aa162-503) (P36897 162-503): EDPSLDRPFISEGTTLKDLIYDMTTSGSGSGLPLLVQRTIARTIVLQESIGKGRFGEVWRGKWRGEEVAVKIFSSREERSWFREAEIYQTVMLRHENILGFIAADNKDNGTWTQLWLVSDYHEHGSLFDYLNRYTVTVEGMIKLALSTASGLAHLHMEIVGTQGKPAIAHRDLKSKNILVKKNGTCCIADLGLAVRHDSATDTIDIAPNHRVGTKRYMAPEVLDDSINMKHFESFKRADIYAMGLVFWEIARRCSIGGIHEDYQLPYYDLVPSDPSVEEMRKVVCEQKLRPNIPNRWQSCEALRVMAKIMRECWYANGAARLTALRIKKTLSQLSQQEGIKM
Sequence of ALK3 (aa198-525) (P36894 198-525): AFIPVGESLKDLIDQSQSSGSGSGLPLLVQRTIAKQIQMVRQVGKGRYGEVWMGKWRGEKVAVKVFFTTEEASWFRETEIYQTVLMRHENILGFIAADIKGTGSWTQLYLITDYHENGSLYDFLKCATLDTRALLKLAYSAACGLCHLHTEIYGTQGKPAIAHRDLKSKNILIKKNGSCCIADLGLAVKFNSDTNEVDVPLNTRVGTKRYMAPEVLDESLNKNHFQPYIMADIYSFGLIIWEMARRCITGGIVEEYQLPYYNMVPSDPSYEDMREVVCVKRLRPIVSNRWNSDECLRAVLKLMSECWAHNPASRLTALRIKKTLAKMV

Row | Structure (SMILES) | IC50 (ALK5 (aa162-503)) [nM] | IC50 (ALK3 (aa198-525)) [nM] | IC50 [1] [nM] | IC50 (ALK1 (aa166-493)) [nM] | IC50 [2] [nM] | IC50 [3] [nM] | IC50 (ALK6 (aa168-495)) [nM]
1 | C[C@@H]1CCCN1Cc1ccc(-c2cnc(N)c(C(=O)N[C@H]3CC[C@H](O)CC3)c2)cc1 [Example 31, 2-amino-N-((1r,4R)-4-hydroxycyclohexyl)-5-(4-(((R)-2-methylpyrrolidin-1-yl)methyl)phenyl)nicotinamide] | 3500 | 1200 | 115 | 230 | 13 | 20 | 4500
2 | CC(C)N1C[C@@H]2C[C@]2(c2ccc(-c3cnc(N)c(C(=O)N[C@H]4CC[C@](C)(O)CC4)c3)cc2)C1 [Example 32, 2-amino-N-((1r,4S)-4-hydroxy-4-methylcyclohexyl)-5-(4-((1S,5R)-3-isopropyl-3-azabicyclo[3.1.0]hexan-1-yl)phenyl)nicotinamide] | 3200 | 12700 | 93 | 743 | 22 | 20 | 3300
3 | Nc1ncc(-c2ccc([C@@]34C[C@@H]3CN(C3CCOCC3)C4)cc2)cc1C(=O)NC12CCC(O)(CC1)CC2 [Example 34, 2-amino-N-(4-hydroxybicyclo[2.2.2]octan-1-yl)-5-(4-((1R,5S)-3-(tetrahydro-2H-pyran-4-yl)-3-azabicyclo[3.1.0]hexan-1-yl)phenyl)nicotinamide] | 6280 | 914 | 49 | 323 | 18 | 23 | 3300
4 | Nc1ncc(-c2ccc([C@]34C[C@H]3CN(C3CCC(F)(F)CC3)C4)cc2)cc1C(=O)NC12CCC(O)(CC1)CC2 [Example 35, 2-amino-5-(4-((1S,5R)-3-(4,4-difluorocyclohexyl)-3-azabicyclo[3.1.0]hexan-1-yl)phenyl)-N-(4-hydroxybicyclo[2.2.2]octan-1-yl)nicotinamide] | 5720 | 903 | 73 | 283 | 17 | 21 | 4500
5 | CC(C)N1C[C@H]2C[C@@]2(c2ccc(-c3cnc(N)c(C(=O)NC45CC(CO)(C4)C5)c3)cc2)C1 [Example 36, 2-amino-N-(3-(hydroxymethyl)bicyclo[1.1.1]pentan-1-yl)-5-(4-((1R,5S)-3-isopropyl-3-azabicyclo[3.1.0]hexan-1-yl)phenyl)nicotinamide] | 10000 | 1450 | 43 | 295 | 16 | 23 | 7200
6 | CC#CCN1C[C@@H]2C[C@]2(c2ccc(-c3cnc(N)c(C(=O)N[C@H]4CC[C@H](O)CC4)c3)cc2)C1 [Example 37, 2-amino-5-(4-((1S,5R)-3-(but-2-yn-1-yl)-3-azabicyclo[3.1.0]hexan-1-yl)phenyl)-N-((1r,4S)-4-hydroxycyclohexyl)nicotinamide] | 1100 | 960 | 37 | 100 | 8 | 27 | 1700
7 | Nc1ncc(-c2ccc([C@]34C[C@H]3CN(CC3COC3)C4)cc2)cc1C(=O)N[C@H]1CC[C@H](O)CC1 [Example 38, 2-amino-N-((1r,4S)-4-hydroxycyclohexyl)-5-(4-((1S,5R)-3-(oxetan-3-ylmethyl)-3-azabicyclo[3.1.0]hexan-1-yl)phenyl)nicotinamide] | 1500 | 1300 | 58 | 160 | 7 | 28 | 2600
8 | Nc1ncc(-c2ccc([C@@]34C[C@@H]3CN(C3CCN(CC(F)(F)F)CC3)C4)cc2)cc1C(=O)N[C@H]1CC[C@H](O)CC1 [Example 39, 2-amino-N-((1r,4R)-4-hydroxycyclohexyl)-5-(4-((1R,5S)-3-(1-(2,2,2-trifluoroethyl)piperidin-4-yl)-3-azabicyclo[3.1.0]hexan-1-yl)phenyl)nicotinamide] | 1600 | 830 | 78 | 190 | 13 | 24 | 2000
9 | Nc1ncc(-c2ccc([C@]34C[C@H]3CN(CCN3CCOCC3)C4)cc2)cc1C(=O)NC12CCC(O)(CC1)CC2 [Example 40, 2-amino-N-(4-hydroxybicyclo[2.2.2]octan-1-yl)-5-(4-((1S,5R)-3-(2-morpholinoethyl)-3-azabicyclo[3.1.0]hexan-1-yl)phenyl)nicotinamide] | 3900 | 995 | 75 | 410 | 32 | 29 | 2850
10 | Nc1ncc(-c2ccc([C@@]34C[C@@H]3CN(CCOCC(F)(F)F)C4)cc2)cc1C(=O)N[C@H]1CC[C@H](O)CC1 [Example 41, 2-amino-N-((1r,4R)-4-hydroxycyclohexyl)-5-(4-((1R,5S)-3-(2-(2,2,2-trifluoroethoxy)ethyl)-3-azabicyclo[3.1.0]hexan-1-yl)phenyl)nicotinamide] | 6700 | 1800 | 158 | 310 | 19 | 23 | 6900
11 | Nc1ncc(-c2ccc([C@]34C[C@H]3CN(C3CCOCC3)C4)cc2)cc1C(=O)NC12CCC(O)(CC1)CC2 [Example 42, 2-amino-N-(4-hydroxybicyclo[2.2.2]octan-1-yl)-5-(4-((1S,5R)-3-(tetrahydro-2H-pyran-4-yl)-3-azabicyclo[3.1.0]hexan-1-yl)phenyl)nicotinamide] | 4770 | 1300 | 235 | 540 | 26 | 29 | 4100
12 | Nc1ncc(-c2ccc(OCCCN3CCCCC3)cc2)cc1C(=O)NC1CCCCC1 [Example 43, 2-amino-N-cyclohexyl-5-(4-(3-(piperidin-1-yl)propoxy)phenyl)nicotinamide] | 3500 | 2350 | 130 | 765 | 31 | 25 | 11000
13 | Nc1ncc(-c2ccc([C@@]34C[C@@H]3CN(C3CCS(=O)(=O)CC3)C4)cc2)cc1C(=O)N[C@H]1CC[C@H](O)CC1 [Example 44, 2-amino-5-(4-((1R,5S)-3-(1,1-dioxidotetrahydro-2H-thiopyran-4-yl)-3-azabicyclo[3.1.0]hexan-1-yl)phenyl)-N-((1r,4R)-4-hydroxycyclohexyl)nicotinamide] | 3200 | 430 | 365 | 170 | 18 | 24 | 2000
14 | CN1CCN(C(=O)c2ccc(-c3cnc(N)c(C(=O)NC4CCCCC4)c3)cc2)CC1 [Example 45, 2-amino-N-cyclohexyl-5-(4-(4-methylpiperazine-1-carbonyl)phenyl)nicotinamide] | 2700 | 1600 | 365 | 750 | 20 | 25 | 4800

— US10710980B2, “Aminopyridine derivatives and their use as selective ALK-2 inhibitors” (priority 2016, dated 2020)
